Data as given in patent US20260374773A1, “MULTI-CYCLIC IRAK AND FLT3 INHIBITING COMPOUNDS AND USES THEREOF” (CHILDREN'S HOSPITAL MEDICAL CENTER, priority 2022, published 2026).
pKd: −log10 of the molar value.

Experiments:
[1] = target: T1, FLT3 (Homo sapiens, UniProt P36888); assay: DiscoverX KINOMEscan active site-directed competition binding, FLT3; details: no ATP
T1 sequence (P36888 27-993): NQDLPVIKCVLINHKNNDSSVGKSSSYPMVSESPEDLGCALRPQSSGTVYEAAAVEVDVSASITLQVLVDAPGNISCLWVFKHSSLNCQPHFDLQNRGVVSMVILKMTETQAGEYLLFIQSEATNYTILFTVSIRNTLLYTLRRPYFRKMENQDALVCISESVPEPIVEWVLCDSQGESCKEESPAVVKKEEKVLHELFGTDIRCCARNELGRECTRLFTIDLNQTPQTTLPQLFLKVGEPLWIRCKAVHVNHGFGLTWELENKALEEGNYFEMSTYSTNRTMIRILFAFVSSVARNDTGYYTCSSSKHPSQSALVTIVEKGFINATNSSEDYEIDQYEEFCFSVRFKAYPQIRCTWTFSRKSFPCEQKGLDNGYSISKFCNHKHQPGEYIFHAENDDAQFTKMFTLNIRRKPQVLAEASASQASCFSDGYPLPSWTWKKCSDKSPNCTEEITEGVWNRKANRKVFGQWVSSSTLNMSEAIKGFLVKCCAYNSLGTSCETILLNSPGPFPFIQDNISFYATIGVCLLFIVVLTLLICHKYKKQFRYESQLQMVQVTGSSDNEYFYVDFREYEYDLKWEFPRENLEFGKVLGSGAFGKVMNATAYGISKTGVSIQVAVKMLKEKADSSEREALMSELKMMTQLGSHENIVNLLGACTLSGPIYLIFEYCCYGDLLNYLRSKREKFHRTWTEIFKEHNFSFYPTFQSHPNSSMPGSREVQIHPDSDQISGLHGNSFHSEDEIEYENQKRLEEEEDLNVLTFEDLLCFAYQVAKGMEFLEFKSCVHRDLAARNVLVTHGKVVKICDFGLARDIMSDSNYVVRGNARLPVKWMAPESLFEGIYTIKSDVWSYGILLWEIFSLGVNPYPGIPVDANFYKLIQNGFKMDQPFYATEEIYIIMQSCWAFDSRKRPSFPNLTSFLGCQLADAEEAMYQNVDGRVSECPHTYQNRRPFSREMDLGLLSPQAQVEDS
From the text: (§1) Kinase binding data were obtained for various exemplary compounds prepared according to Examples 1-8 using the DiscoverX KINOMEscan® active site-directed competition binding site-directed assay protocol described below. […] As a result, the data report thermodynamic interaction affinities (Kd values), rather than IC50 values that are dependent on ATP concentrations. The assay uses a DNA-tagged version of the protein kinase, and an immobilized ligand bound to a solid support. Compounds that directly or indirectly prevent kinase binding to the immobilized ligand reduce the amount of kinase captured on the solid support, which is detected using an ultra-sensitive qPCR method. Affinity constants reported from the assay have been reported to be independent of the immobilized ligand used that is coupled to the solid support (See supplemental information in Fabian, M. A. et. al., (2005) Nat. Biotechnol. 23, 329-336; Wodicka, L. M. et. al., (2010) Chem. Biol. 17, 1241-1249.)
(§2) Kinase-tagged T7 phage strains were prepared in an E. coli host derived from the BL21 strain. E. coli were grown to log-phase and infected with T7 phage and incubated with shaking at 32 °C until lysis. The lysates were centrifuged and filtered to remove cell debris. The remaining kinases were produced in HEK-293 cells and subsequently tagged with DNA for qPCR detection. Streptavidin-coated magnetic beads were treated with biotinylated small molecule ligands for 30 minutes at room temperature to generate affinity resins for kinase assays. The liganded beads were blocked with excess biotin and washed with blocking buffer (SeaBlock (Pierce), 1% BSA, 0.05% Tween 20, 1 mM DTT) to remove unbound ligand and to reduce non-specific binding. […] Test compounds were prepared as 111x stocks in 100% DMSO. Kds were determined using an 11-point 3-fold compound dilution series with three DMSO control points. All compounds for Kd measurements are distributed by acoustic transfer (non-contact dispensing) in 100% DMSO. The compounds were then diluted directly into the assays such that the final concentration of DMSO was 0.9%. All reactions were performed in polypropylene 384-well plates. Each was a final volume of 0.02 mL. The assay plates were incubated at room temperature with shaking for 1 hour and the affinity beads were washed with wash buffer (1×PBS, 0.05% Tween 20). The beads were then re-suspended in elution buffer (1×PBS, 0.05% Tween 20, 0.5 μM nonbiotinylated affinity ligand) and incubated at room temperature with shaking for 30 minutes. The kinase concentration in the eluates was measured by qPCR. Binding constants (Kds) were calculated with a standard dose-response curve using the Hill equation. The Hill Slope was set to −1. Curves were fitted using a non-linear least square fit with the Levenberg-Marquardt algorithm.
as §1, with “9-12” for “1-8”
(§3) Kinase-tagged T7 phage strains were prepared in an E. coli host derived from the BL21 strain. […]

[2] = target: T2, FLT3 Autoinh. (Homo sapiens, UniProt P36888); assay: DiscoverX KINOMEscan active site-directed competition binding, FLT3 Autoinh.; details: no ATP
T2 sequence (P36888 27-993): T1 sequence (P36888 27-993)
From the text: as §1, §2
as §1, with “9-12” for “1-8”
as §3

| Compound | pKd ([1]; Table 12) | pKd ([2]; Table 13) | pKd ([1]; Table 18) | pKd ([2]; Table 19) |
| --- | --- | --- | --- | --- |
| COc1cn2ncc(-c3nc(N[C@H]4CNCC[C@@H]4F)c(C#N)cc3F)c2nc1C1CC1 [Compound 7, 6-(5-cyclopropyl-6-methoxypyrazolo[1,5-a]pyrimidin-3-yl)-5-fluoro-2-(((3S,4S)-4-fluoropiperidin-3-yl)amino)nicotinonitrile] | > 9.77 | 9.17 | – | – |
| COc1cn2ncc(-c3cncc(N[C@H]4CNCC[C@@H]4F)n3)c2nc1C1CC1 [Compound 12a, 6-(5-cyclopropyl-6-methoxypyrazolo[1,5-a]pyrimidin-3-yl)-N-((3S,4S)-4-fluoropiperidin-3-yl)pyrazin-2-amine] | – | – | > 9.77 | 8.34 |
| COc1cn2ncc(-c3nc(N[C@@H]4CCCNC4)ncc3F)c2nc1C1CC1 [Compound 14a, (R)-4-(5-cyclopropyl-6-methoxypyrazolo[1,5-a]pyrimidin-3-yl)-5-fluoro-N-(piperidin-3-yl)pyrimidin-2-amine] | – | – | > 9.77 | 8.80 |
| COc1cn2ncc(-c3nc(N[C@H]4CNCC[C@@H]4F)ncc3F)c2nc1C(C)(C)O [Compound 6a, 2-(3-(5-fluoro-2-(((3S,4S)-4-fluoropiperidin-3-yl)amino)pyrimidin-4-yl)-6-methoxypyrazolo[1,5-a]pyrimidin-5-yl)propan-2-ol] | – | – | 9.33 | 8.32 |
| COc1cn2ncc(-c3ccnc(N[C@H]4CNCC[C@@H]4F)n3)c2nc1C1CC1 [Compound 7a, 4-(5-cyclopropyl-6-methoxypyrazolo[1,5-a]pyrimidin-3-yl)-N-((3S,4S)-4-fluoropiperidin-3-yl)pyrimidin-2-amine] | – | – | > 9.77 | 7.92 |
| COc1cn2ncc(-c3nc(N[C@H]4CNCC[C@@H]4F)c(F)cc3F)c2nc1C(C)(C)O [Compound 13, 2-(3-(3,5-difluoro-6-(((3S,4S)-4-fluoropiperidin-3-yl)amino)pyridin-2-yl)-6-methoxypyrazolo[1,5-a]pyrimidin-5-yl)propan-2-ol] | 9.21 | 8.43 | – | – |
| COc1cn2ncc(-c3nc(N[C@H]4CNCC[C@@H]4F)c(C#N)cc3F)c2nc1C(C)(C)O [Compound 10, 5-fluoro-2-(((3S,4S)-4-fluoropiperidin-3-yl)amino)-6-(5-(2-hydroxypropan-2-yl)-6-methoxypyrazolo[1,5-a]pyrimidin-3-yl)nicotinonitrile] | 9.55 | 8.27 | – | – |
| COc1cn2ncc(-c3nc(N[C@H]4CNCC[C@@H]4F)ncc3F)c2nc1C1CC1 [Compound 15a, 4-(5-cyclopropyl-6-methoxypyrazolo[1,5-a]pyrimidin-3-yl)-5-fluoro-N-((3S,4S)-4-fluoropiperidin-3-yl)pyrimidin-2-amine] | – | – | > 9.77 | 8.85 |
